Experimental data reported in patent US20100331338A1, “Glucokinase Activators” (Merck Patent GMBH, priority 2008, published 2010).
pEC50: −log10 of the molar value.

Molecular target: T1, hGK (Homo sapiens, UniProt P35557)
T1 sequence (P35557 1-465): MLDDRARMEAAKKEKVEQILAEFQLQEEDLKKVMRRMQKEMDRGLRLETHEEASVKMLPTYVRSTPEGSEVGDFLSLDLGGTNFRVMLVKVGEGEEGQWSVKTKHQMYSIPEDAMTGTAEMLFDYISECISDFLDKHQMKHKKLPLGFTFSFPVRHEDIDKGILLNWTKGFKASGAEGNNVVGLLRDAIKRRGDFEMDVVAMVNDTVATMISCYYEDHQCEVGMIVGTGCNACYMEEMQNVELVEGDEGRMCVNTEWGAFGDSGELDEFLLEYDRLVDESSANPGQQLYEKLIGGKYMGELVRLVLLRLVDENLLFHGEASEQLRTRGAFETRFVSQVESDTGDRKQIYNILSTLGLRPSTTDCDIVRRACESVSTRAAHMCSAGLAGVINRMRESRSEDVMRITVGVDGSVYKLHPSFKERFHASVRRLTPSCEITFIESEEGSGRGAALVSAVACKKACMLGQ
Test: Glucokinase Activation Screening Assay (coupled enzyme assay with PK/LDH)
Assay type: biochemical
Conditions: 2 mM glucose; for hGK fold activation at 30 μM: fold activation at 30 μM compound
Experimental: Glucokinase Activation Screening Assay
GK activity (human or rat enzyme) is measured by a coupled enzyme assay using pyruvate kinase (PK) and lactate dehydrogenase (LDH) as coupling enzymes. GK activity is calculated from the decline in NADH monitored photometrically with a microtiter plate (MTP) reader at 340 nm.
For screening purposes, the GK assay is routinely run in a 384-MTP format, in a total volume of 33 μl/well. 10 μl of the ATP-regeneration solution (in HEPES-buffer*, pH 7.0, 6.73 U/ml pyruvate kinase, 6.8 U/ml lactate dehydrogenase) and 10 μl of the glucokinase-/glucose solution (15 μg/ml, 6.6 mM glucose in HEPES-buffer*, pH 7.0; the concentration of the glucose stock-solution was 660 mM in Millipore H2O) were mixed together with […] of a 10% DMSO solution (in HEPES-buffer*, pH 7.0) containing 3.3-fold the amounts of the compounds to achieve final compound concentrations in the range between 1 nM to 30 μM (sometimes 300 μM) in the assay solution (s. below). The solutions were mixed for 5 sec, and after a centrifugation at 243×g for 5 min, the solutions were preincubated for 25 min at room temperature.
The reaction was started by the addition of 10 μl of the NADH-/ATP-solution (4.29 mM NADH, 4.95 mM ATP, in HEPES-buffer*). The MTP was shaken for 5 sec., and then, the absorbance at 340 nm was monitored continuously in a MTP-reader (TECAN Spectro fluor plus) for the next 27 min (with a MTP-cycling time of 199 sec.). The final concentrations of the various components were as follows: 49.5 mM Hepes, pH 7.0, 1.49 mM PEP,1,3 mM NADH, 49.5 mM KCl, 4.96 mM MgCl2, 1.5 mM Mg-ATP, 1.98 mM DTT, 2.04 U/ml pyruvate kinase, 2.06 U/ml lactate-dehydrogenase, 0.91% DMSO, 0.15 μg/well glucokinase, and test compounds in the range between 1 nM and 300 μM.
The change in the optical density (ΔOD340 nm) in the presence of the compound was expressed relative to the ΔOD340 nm, ctrl of the control incubation (in the presence of 2 mM glucose and 0.91% DMSO), taking into account the optical density of the blank sample (incubation in the absence of 2 mM glucose). For the determination of the half maximal effective concentration (EC50), the %-Ctrl-values were plotted in a semi-logarithmic graph against the conc. of the compound of interest. The data points were fitted to a sigmoid curve function (f(x)=((%-Ctrlmax%-Ctrlmin)/(1−(EC50/x**^n(Hill)))+%-Ctrlmin)) by a non-linear regression analysis.
* Hepes-buffer (50 mM Hepes, pH 7.0, 5 mM MgCl2, 50 mM KCl, 1.5 mM PEP, 0.1% BSA). DTT was added to the Hepes-buffer from a 200× stock solution (in Millipore H2O) freshly each day. The final concentration of DTT in the Hepes-buffer is 2 mM.

Row | SMILES | hGK fold activation at 30 μM | pEC50
1 | Cc1csc(C(=O)Nc2cc(C)n(Cc3ccccn3)n2)c1 [Example 16, 4-Methyl-thiophene-2-carboxylic acid(5-methyl-1-pyridin-2-ylmethyl-1H-pyrazol-3-yl)-amide] | 1.3 | –
2 | CS(=O)(=O)c1cc(C(=O)Nc2nccs2)sc1Cl [Example 5, 5-Chloro-4-methanesulfonyl-thiophene-2-carboxylic acid thiazol-2-ylamide] | 1.9 | 5.23
3 | CCCc1cc(C(=O)Nc2nc(C(=O)OCC)cs2)cs1 [Example 12, 2-[(5-Propyl-thiophene-3-carbonyl)-amino]-thiazole-4-carboxylic acid ethyl ester] | 2.6 | 5.30
4 | CCCOc1sc(C(=O)Nc2nccs2)cc1S(C)(=O)=O [Example 52, 4-Methanesulfonyl-5-propoxy-thiophene-2-carboxylic acid thiazol-2-ylamide] | 2.1 | 5.00
5 | CCCc1cc(C(=O)Nc2nc(C(=O)O)cs2)cs1 [Example 42, 2-[(5-Propyl-thiophene-3-carbonyl)-amino]-thiazole-4-carboxylic acid] | 3.3 | 5.05
6 | CCCc1cc(C(=O)Nc2nc(C)cs2)cs1 [Example 10, 5-Propyl-thiophene-3-carboxylic acid(4-methyl-thiazol-2-yl)-amide] | 5.2 | 5.03
